Patent publication US20100113430A1, “THIOXANTHENE DERIVATES USEFUL TO TREAT INFECTIOUS DISEASES” (BKG PHARMA APS, priority 2007, published 2010)
Converted amounts (≈) assume the structure as drawn.

Columns and labels:
[1] = system: Enterococcus faecalis BG VSE-92; experiment: Mouse peritonitis/sepsis model; type: in vivo, NMRI mice; conditions: 25 mg/kg s.c.
Protocol: A clinical multiresistant isolate of Enterococcus faecalis BG VSE-92 from human urine was used.
Female NMRI mice (age, approximately 6 to 8 weeks; weight, 30±2 g) were used for the mouse […] peritonitis model (as described below).
Bacterial suspensions were prepared from fresh overnight cultures (made from frozen stock cultures) on 5% blood agar plates as described above. The inoculum for the mouse peritonitis model was prepared immediately before use and was adjusted at 540 nm of giving a density of approximately 10^7 CFU/ml. The size of the inoculum was determined by viability counting on 5% blood agar.
The mice were injected intraperitoneally with 0.5 ml of the enterococcal suspension, resulting in bacteremia within 1 h of inoculation. Antibiotic therapy was initiated 1 h after inoculation. N-dealkyl-trans-clopenthixol was administered subcutaneously in the neck region in a volume of 0.7 ml per dose. Ten mice were in each treatment group. Inoculated untreated control mice were included in all trials. (Method reference: Erlandsdottir et al; Antimicrob Agents Chemother. 2001 April; 45(4):1078-85)
The effects of the various treatment regimens were determined during 6 h of treatment by evaluation of bacterial counts in the […]. After the mice were killed, blood were immediately diluted 10-fold in saline, from which 20 μl was plated onto 5% blood agar plates in spots, with subsequent counting of colonies after incubation overnight at 35° C. The lowest detection levels for bacterial counts in blood were 50 CFU/ml.
The bactericidal efficacies of the treatment regimens in the mouse models were calculated by subtracting the results for each treated mouse from the mean results for control mice at the end of therapy (6 h). A P value of <0.05 was considered significant. All statistical comparisons were two-tailed.

[2] = system: Staphylococci, Micrococci. Including MRSA; experiment: MIC/IC90 broad spectrum, Staphylococci and Micrococci; type: cell-based; conditions: 30 strains, 20 resistant (20 MRSA)
Protocol: (§1) Cell growth was tested using the Minimal Inhibitory Concentration (MIC) susceptibility tests by use of the microdilution broth method in accordance to the NCCLS Guidelines (NCCLS Guidelines, Methods for Dilution Antimicrobial Susceptibility Tests for Bacteria That Grow Aerobically; Approved Standard, Sixth Edition, Volume 23; Number 2). The minimum inhibitory concentration (MIC), is defined ad the lowest concentration of drug which inhibits growth of the test organism, in the sense that no visible growth is detected (total inhibition of growth). In example 2 MIC of the compounds used on fungal microorganisms was determined from the IC90 measurements according to NCCLS Guidelines.
A log phase culture of bacteria was diluted with fresh pre-warmed Mueller-Hinton medium and adjusted to a defined OD at 600 nm in order to give a final concentration of 1×10^4-5 bacteria/ml medium. The bacterial culture was transferred to microtiter-plates and culture was added to each well. Drug was added to the bacterial culture in the wells as two-fold dilution series of drug in order to give final concentrations ranging from 0.03 to 128 μg/ml. Trays were incubated at 37° C. by shaking in a robot analyzer, PowerWavex, software KC^4′ Kebo.Lab, Copenhagen, for 16 h and optical densities were measured at 600 nm during the incubation time in order to record growth curves. Wells containing bacterial culture without drug were used as controls to ensure correct inoculum size and bacterial growth during the incubation. Cultures were tested in order to detect contaminations. Each experiment was repeated in triplicate. MIC values represent the mean values of two separate triplicate experiments. Intra- and interassay variation was <5%.
Inhibition 90 (IC90) is defined as: OD responding a 90% growth inhibition.
A broad spectrum of bacteria were cultured and assayed as described above for susceptibility towards N-dealkyl-clopenthixol.

HIV-1 strain HTLV-IIIB = experiment: Inhibition of HIV-1 replication in MT4 cells (MTT assay); type: cell-based; conditions: HIV-1 IIIB 0.005 MOI, six days
Protocol: The antiviral effect of N-dealkyl-trans-flupenthixol and N-dealkyl-trans-clopenthixol was studied by checkerboard studies exposing HIV infected cells to 0-3 μM of trans-clopenthixol. Each experiment was repeated in triple duplicate. MIC values represent the mean values of two separate experiments.
The HIV-1 strain HTLV-IIIB were propagated in H9 cells at 37° C., 5% CO2 using RPMI 1640 with 10% heat-inactivated foetal calf serum (FCS) and antibiotics (growth medium). Culture supernatant was filtered ([…]), aliquoted, and stored at −80° C. until use. The HIV-1 strain was obtained from NIH AIDS Research and Reference Program.
Compounds were examined for possible antiviral activity against strain IIIB of HIV-1 using MT4 cells as target cells. MT4 cells were incubated with virus (0.005 MOI) and growth medium containing the test dilutions of compound(s) for six days in parallel with virus-infected and uninfected control cultures without compound added. Expression of HIV in the cultures was indirectly quantified using the MTT assay as previously described. Compounds mediating less than 30% reduction of HIV expression were considered without biological activity. […] The 50% inhibitory concentration was determined by interpolation from the plots of percent inhibition versus concentration of compound. […]

[3] = system: Candida glabrata Multiresistant isolate; experiment: MIC of cis- and trans-forms, Candida glabrata multiresistant isolate; type: cell-based; conditions: Example 4
Protocol: as §1
Cultured microorganisms were assayed as described above. Cis- and trans-isomers of N-dealkyl-clopenthixol was added to the cultures.

[4] = system: Fluconazole Resistant Candida albicans clinical isolate; experiment: MIC (80% growth inhibition), broth microdilution NCCLS M27-A, fluconazole resistant Candida albicans; type: cell-based; conditions: fluconazole resistant Candida albicans; MIC = 80% growth inhibition
Protocol: The antimicrobial effect of N-dealkyl-trans-clopenthixol and N-dealkyl-trans-flupenthixol was studied by exposing cells to 0-8 μg/ml of the compounds in two-fold dilutions. Each experiment was repeated in triple duplicate. MIC values represent the mean values of two separate experiments.
Clinical Isolate of A Fluconazole Resistant Candida albicans from a Patient with Candidemia.
The isolates were subcultured for 24 h on Sabouraud glucose agar before susceptibility testing. Broth microdilution tests were performed according to NCCLS document M27-A (Ref: National Commitee for Clinical Laboratory Standards. (1997). Reference Method for Broth Dilution Antifungal Susceptibility Testing of Yeasts: Approved Standard M27-A. NCCLS, Wayne, Pa.)
Microtitre plates were read spectrophotometrically at 530 nm, after mixing the wells by pipetting to resuspend yeast sediments. The MIC was defined as the lowest drug dilution resulting in 80% growth inhibition.

[5] = 6 hours after inoculation, infected mice

## Clc1ccc2c(c1)/C(=C/CCN1CCNCC1)c1ccccc1S2 [N-dealkyl-trans-clopenthixol, trans-1-(3-(2-chloro-thioxanthen-9-ylidene)propyl)piperazine]
[1]; [5]
  Cfu/ml blood (median): 1.55 × 10^4 Cfu/ml blood
  Log (cfu/ml blood) (median): 4.19 Log (cfu/ml blood)
[1]; p<0.05
  decrease of number of bacteria per ml of blood: approx. 2 log
[2]
  IC90 (mean): 0.5 µg/mL (≈ 1.4 µM)
  MIC (mean): 1 µg/mL (≈ 2.8 µM)
  MIC range: 0.5 to 2 µg/mL
HIV-1 strain HTLV-IIIB
  EC50: 2000 nM
[3]
  MIC: 1.0 µg/mL
[4]
  MIC: 3 µg/mL (≈ 8.41 µM)
